Reference: patent publication US7671061B2, “Methods and compositions for treating pain” (Hydra Biosciences, Inc., priority 2005, dated 2010)
Entries after “also recorded” stand apart in the source; their conditions may differ.

Columns and labels:
[1] = Plasma levels / pharmacokinetics in male Sprague-Dawley rat; assay type: in vivo
Experimental: Compound 200 plasma levels were determined via HPLC/MS/MS following a single intravenous bolus dose of 0.9 mg/kg, an intraperitoneal dose of 12 mg/kg (suspension), and an oral dose of 12 mg/kg (suspension) in the male Sprague-Dawley rat. […] For intraperitoneal administration, Compound 200 was formulated as a uniform suspension in CMC (carboxymethylcellulose) at a target concentration of 1 mg/mL and administered at a dose volume of 10 mL/kg. For oral administration, Compound 200 was formulated as a uniform suspension in CMC (carboxymethylcellulose), at a target concentration of 1 mg/mL, administered by gavage, at a dose volume of 10 mL/kg, to the conscious, fasted, male Sprague-Dawley rat.

hERG = hERG (Homo sapiens, UniProt Q12809); experiment: hERG patch clamp (Qpatch) selectivity; conditions: hERG IC50 (nM), Table 2
[2] = tested on: bradykinin induced tactile allodynia; experiment: Bradykinin induced pain model; assay type: in vivo, rat
Experimental: As outlined above, the bradykinin model involves an intraplantar injection of a 5 ng/uL solution of bradykinin. Injection of the bradykinin solution typically causes a rapid sensitization. Sensitization is measured by assessing the thermal escape latency of the injected paw in response to a mild thermal stimulus delivered by a modified Hargreaves apparatus. FIGS. 1a and 1b summarize data obtained following testing of Compound 200 in the bradykinin model. This study examined the antinociceptive effects of 200 mg/kg, 50 mg/kg, and 12.5 mg/kg intraperitoneal Compound 200 on bradykinin induced tactile allodynia. […] Inhibitor or vehicle were injected intraperitoneally (IP). […] Throughout the study, general behavioral assessments were made during each period of observation. Observations included tactile allodynia (vocalization/agitation induced by light touch applied to the body surface), spontaneous vocalization, biting and chewing of body surface, loss of hind limb placing and stepping reflex, loss of hind limb weight bearing, and loss of righting reflex. Additionally, mechanical allodynia was assessed and measured. The results provided in FIGS. 1a and 1b are based on assessment of mechanical allodynia.

[3] = tested on: CFA model of inflammatory pain; experiment: CFA model of inflammatory pain
Experimental: FIG. 4 summarizes data obtained following testing of Compound 200 in the CFA model. Naive rats were pretested for sensitivity to a heat stimulus in the Hargreaves apparatus. The next day, 100 μL of complete Freund's adjuvant (CFA) was injected into the plantar surface of the right hindpaw. Two days later, in the morning, the rats were again pretested. In the afternoon, rats were injected with either vehicle control or with drug (TRPA1 inhibitor 200 or the non-steroidal anti-inflammatory diclofenac). Drugs or vehicle were injected intraperitoneally, and 45 minutes later rats were tested for hyperalgesia by applying the heat source to the CFA injected and uninjected hindpaw and measuring latency to withdrawal.

[4] = tested on: BOO model of incontinence; conditions: BOO rats, intravesical infusion
Excerpt: Efficacy of the varying doses of TRPA1 inhibitory compound were compared to controls administered excipients alone (sham control). Efficacy was also compared to rats administered a positive control, such as atropine.
Female Sprague Dawley rats were used in these studies. Rats underwent surgical partial bladder outlet obstruction (BOO) or sham surgery. Five weeks after BOO (or sham) surgery, an intravesical catheter was surgically implanted into the dome of the bladder for conducting urodynamic studies. One week after catheter implantation (6 weeks after BOO or sham), urodynamic studies began. […] An analytic balance beneath the wire-bottom animal cage measured the amount of urine voided during continuous cystometry. […]
For each CMG cycle, the following parameters were assessed: infused volume (the amount of saline or drug infused for each CMG cycle); void volume (the amount of urine voided by the animal for each CMG cycle); minimum pressure (minimum pressure during filling); threshold pressure (pressure prior to micturition when bladder pressure begins to rise steeply); average pressure (average pressure during filling and before threshold); maximum pressure; intermicturition interval (time between two subsequent voiding events); urine flow rate index.

hTRPV4 = hTRPV4 (Homo sapiens, UniProt Q9HBA0); experiment: hTRPV4 patch clamp selectivity; assay type: cell-based; conditions: Table 2
formalin model = experiment: Formalin model of pain; assay type: in vivo, rat; conditions: both Early Phase and Late Phase, drug 15 min before formalin
Experimental: As outlined above, the formalin model involves injection of a formalin solution intradermally or […]. Injection of formalin solution invokes a biphasic response, and thus provides a model for both nociceptive and inflammatory pain. The formalin model can be used to evaluate the effectiveness of an exemplary TRPA1 inhibitor in the treatment of pain. […] Briefly, the following protocol was followed. Male Holtzmann rats received intraplantar injections of 50 μL of 2% formalin. Paw flinching was detected by an automated sensor detecting movement of a small metal band placed on the injected hind paw. Drug or vehicle was administered approximately 15 minutes prior to the injection of formalin. The animal's response to injection of the irritant was measured by counting flinches per minutes during the Early Phase (the first 5 minutes following injection of formalin), during the Late Phase (approximately 30 minutes after injection of formalin), and during the intervening pain free phase. In FIG. 2, the right most bar for each data set (Early Phase and Late Phase) represents administration of vehicle alone and the left most bar represents administration of gabapentin. […]

hTRPV3 = target: T1, hTRPV3 (Homo sapiens, UniProt Q8NET8); experiment: hTRPV3 patch clamp selectivity; assay type: cell-based; conditions: Table 2
T1 sequence (Q8NET8 1-790): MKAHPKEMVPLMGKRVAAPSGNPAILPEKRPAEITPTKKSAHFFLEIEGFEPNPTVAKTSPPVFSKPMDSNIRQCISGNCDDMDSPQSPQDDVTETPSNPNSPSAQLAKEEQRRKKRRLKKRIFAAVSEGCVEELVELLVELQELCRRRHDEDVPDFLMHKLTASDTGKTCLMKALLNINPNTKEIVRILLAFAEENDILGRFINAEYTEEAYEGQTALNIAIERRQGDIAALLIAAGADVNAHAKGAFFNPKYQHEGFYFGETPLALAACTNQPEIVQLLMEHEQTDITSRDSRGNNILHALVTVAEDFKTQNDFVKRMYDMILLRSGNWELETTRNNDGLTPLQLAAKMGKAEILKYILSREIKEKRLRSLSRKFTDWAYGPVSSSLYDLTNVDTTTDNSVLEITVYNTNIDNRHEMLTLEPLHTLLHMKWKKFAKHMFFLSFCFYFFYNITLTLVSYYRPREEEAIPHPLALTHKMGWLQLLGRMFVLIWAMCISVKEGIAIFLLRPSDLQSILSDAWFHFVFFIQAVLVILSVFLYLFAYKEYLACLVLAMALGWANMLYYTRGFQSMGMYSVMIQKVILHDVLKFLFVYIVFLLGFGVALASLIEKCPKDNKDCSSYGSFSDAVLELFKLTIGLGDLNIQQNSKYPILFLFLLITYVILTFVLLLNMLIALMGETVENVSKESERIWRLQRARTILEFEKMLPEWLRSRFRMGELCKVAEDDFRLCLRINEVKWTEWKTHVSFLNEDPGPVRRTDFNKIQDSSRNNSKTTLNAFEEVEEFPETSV

[5] = plasma, male Sprague-Dawley rat, intravenous bolus 0.9 mg/kg

hTRPV4, sequence (Q9HBA0 whole entry): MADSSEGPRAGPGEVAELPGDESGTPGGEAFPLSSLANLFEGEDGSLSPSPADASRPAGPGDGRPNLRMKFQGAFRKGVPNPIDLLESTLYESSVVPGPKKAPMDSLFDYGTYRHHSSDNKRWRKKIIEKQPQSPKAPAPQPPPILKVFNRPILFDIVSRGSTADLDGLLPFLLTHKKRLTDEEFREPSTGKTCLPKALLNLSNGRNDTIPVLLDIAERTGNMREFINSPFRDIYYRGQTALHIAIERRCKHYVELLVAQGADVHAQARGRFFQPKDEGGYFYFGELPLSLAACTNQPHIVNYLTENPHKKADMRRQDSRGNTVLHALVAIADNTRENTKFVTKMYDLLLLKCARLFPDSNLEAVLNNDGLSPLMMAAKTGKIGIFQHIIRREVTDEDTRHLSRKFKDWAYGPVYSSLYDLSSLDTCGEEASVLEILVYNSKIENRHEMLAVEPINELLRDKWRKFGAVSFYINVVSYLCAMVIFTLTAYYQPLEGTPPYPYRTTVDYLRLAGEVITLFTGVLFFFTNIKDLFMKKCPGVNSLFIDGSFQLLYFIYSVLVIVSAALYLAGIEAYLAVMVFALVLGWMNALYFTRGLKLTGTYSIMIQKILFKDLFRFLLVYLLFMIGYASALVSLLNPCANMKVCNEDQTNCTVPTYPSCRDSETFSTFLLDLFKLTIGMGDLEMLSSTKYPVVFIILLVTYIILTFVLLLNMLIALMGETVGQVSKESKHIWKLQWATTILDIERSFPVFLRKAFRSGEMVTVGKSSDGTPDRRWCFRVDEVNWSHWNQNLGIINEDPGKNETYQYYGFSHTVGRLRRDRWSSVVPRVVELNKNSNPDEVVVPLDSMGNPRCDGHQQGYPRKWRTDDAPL
hERG, sequence (Q12809 whole entry): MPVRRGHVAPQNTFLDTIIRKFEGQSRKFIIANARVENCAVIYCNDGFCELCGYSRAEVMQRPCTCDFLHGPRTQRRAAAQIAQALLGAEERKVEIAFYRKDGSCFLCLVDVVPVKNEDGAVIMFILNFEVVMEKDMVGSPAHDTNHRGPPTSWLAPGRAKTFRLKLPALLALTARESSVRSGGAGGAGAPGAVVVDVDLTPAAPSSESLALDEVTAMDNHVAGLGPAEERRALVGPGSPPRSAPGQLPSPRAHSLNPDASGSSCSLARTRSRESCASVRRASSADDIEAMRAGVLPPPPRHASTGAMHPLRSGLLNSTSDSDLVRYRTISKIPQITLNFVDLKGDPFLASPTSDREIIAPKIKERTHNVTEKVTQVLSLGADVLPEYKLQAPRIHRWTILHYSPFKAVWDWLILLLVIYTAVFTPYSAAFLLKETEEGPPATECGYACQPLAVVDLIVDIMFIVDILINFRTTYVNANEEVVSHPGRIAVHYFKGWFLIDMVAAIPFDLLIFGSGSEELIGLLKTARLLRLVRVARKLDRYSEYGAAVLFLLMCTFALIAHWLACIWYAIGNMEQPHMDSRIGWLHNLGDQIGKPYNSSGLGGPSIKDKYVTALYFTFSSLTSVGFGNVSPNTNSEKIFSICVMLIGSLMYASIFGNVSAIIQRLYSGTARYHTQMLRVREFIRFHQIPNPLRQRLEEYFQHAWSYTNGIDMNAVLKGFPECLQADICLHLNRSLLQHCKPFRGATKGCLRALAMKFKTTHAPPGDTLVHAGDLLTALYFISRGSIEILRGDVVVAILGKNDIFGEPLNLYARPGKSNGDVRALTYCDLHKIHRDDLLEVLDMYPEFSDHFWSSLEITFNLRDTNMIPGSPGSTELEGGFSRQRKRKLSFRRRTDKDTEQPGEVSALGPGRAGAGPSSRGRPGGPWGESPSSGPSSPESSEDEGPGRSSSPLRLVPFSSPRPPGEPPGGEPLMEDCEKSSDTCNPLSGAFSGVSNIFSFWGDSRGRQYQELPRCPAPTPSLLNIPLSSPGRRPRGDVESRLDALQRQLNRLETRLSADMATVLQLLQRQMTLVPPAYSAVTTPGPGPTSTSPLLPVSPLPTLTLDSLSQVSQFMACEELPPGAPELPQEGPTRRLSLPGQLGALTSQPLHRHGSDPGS

CC(C)c1ccc(NC(=O)Cn2cnc3c2c(=O)n(C)c(=O)n3C)cc1 [Compound 200, 2-(1,3-dimethyl-2,6-dioxo-1,2,3,6-tetrahydropurin-7-yl)-N-(4-isopropylphenyl)acetamide]
bioavailability ([1]; male, Sprague-Dawley, plasma, fasted rat, oral suspension 12 mg/kg): ~8% | concentration at 45 min ([1]; male, Sprague-Dawley, plasma, rat, oral 12 mg/kg, 45 min): ~355 ng/mL | clearance [1, 5]: 27 mL/min/kg | half-life [1, 5]: 32 min | Vd ([1]; plasma, male Sprague-Dawley rat, intravenous bolus 0.9 mg/kg, read-out: volume of distribution): 1.28 L/kg | plasma levels ([1]; rat, intraperitoneal 12 mg/kg, 15-60 min): ~355 ng/mL | IC50 (hERG): ≥ 20000 nM | effect on mechanical threshold / allodynia after bradykinin injection ([2]; IP 12.5, 50, 200 mg/kg, 30 min before bradykinin): dose dependent effect; also recorded: dose dependent decrease of allodynia | changes in behavioral parameters ([2]; IP doses up to 200 mg/kg): no changes in behavioral parameters were noted | duration of effect on mechanical threshold ([2]; IP doses up to 200 mg/kg): approximately 60 minutes | rats with mild sedation ([2]; highest dose (200 mg/kg IP)): 3 of 8 | efficacy compared with diclofenac ([3]; IP): superior to diclofenac | thermal hyperalgesia ([3]; IP, 45 minutes before test, CFA injected paw): reduced | toxicity ([3]; rat, in vivo, ip): without toxicity | control paw (uninflamed) sensation ([3]; uninjected hindpaw): not affected | maximum bladder pressure [4]: decreased | threshold bladder pressure [4]: decreased | IC50 (hTRPV4): > 10 µM | selective for TRPA1 over TRPV4 (hTRPV4): ≥ 5 fold | flinches per minute (formalin model): substantially reduced | selective for TRPA1 over TRPV3 (hTRPV3): ≥ 5 fold | IC50 (hTRPV3; read-out: hTRPV3 P1 inward IC50): > 10 µM
